According to PubChem BioAssay (NCI):
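Results reflect a 48-hour exposure of cells in 96-well plates to compound at five concentrations. TGI: total growth inhibition.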

test system: 786-0 renal; assay: NCI-60 cell line screen, 48 h

Q: O=C(O)c1ccc(P(=O)(O)c2ccc(C(=O)O)cc2Br)c(Br)c1 was tested. Which TGI did it give?
A: Its TGI is greater than 100 µM.

Q: Which TGI does the source give for Cn1ccnc1CC(C)(O)c1ccccc1 (configuration not stated) here?
A: The TGI was greater than 100 µM.

test system: A498 renal; assay: NCI-60 cell line screen, 48 h

Q: How did the TGI turn out when O=C1c2cccc3cc([N+](=O)[O-])cc(c23)C(=O)N1CCCN1CCN(CCCNc2ccc3ncn4c5ccccc5c(=O)c2c34)CC1 was run?
A: The TGI was 5.67 µM.

Q: COC(=O)C(Cc1cn(C(C)=O)c2ccccc12)P(=O)(OC)OC (configuration not stated) was tested. Which TGI did it give?
A: The TGI was greater than 100 µM.

Q: For Cn1ccnc1CC(C)(O)c1ccccc1 (configuration not stated), which TGI is on record?
A: The TGI was greater than 100 µM.

test system: A549 NSCLC; assay: NCI-60 cell line screen, 48 h

Q: For O=C1c2cccc3cc([N+](=O)[O-])cc(c23)C(=O)N1CCCN1CCN(CCCNc2ccc3ncn4c5ccccc5c(=O)c2c34)CC1, which TGI is on record?
A: The TGI was greater than 50 µM.

Q: How did the TGI turn out when COC(=O)C(Cc1cn(C(C)=O)c2ccccc12)P(=O)(OC)OC (configuration not stated) was run?
A: Its TGI is greater than 100 µM.

Q: With O=C(O)c1ccc(P(=O)(O)c2ccc(C(=O)O)cc2Br)c(Br)c1 as the molecule, how does the TGI read?
A: Its TGI is greater than 100 µM.

Q: With Cn1ccnc1CC(C)(O)c1ccccc1 (configuration not stated) as the molecule, how does the TGI read?
A: The TGI was greater than 100 µM.

test system: ACHN renal; assay: NCI-60 cell line screen, 48 h

Q: COC(=O)C(Cc1cn(C(C)=O)c2ccccc12)P(=O)(OC)OC (configuration not stated) was tested. Which TGI did it give?
A: The TGI was greater than 100 µM.

Q: Cn1ccnc1CC(C)(O)c1ccccc1 (configuration not stated) was tested. Which TGI did it give?
A: Its TGI is greater than 100 µM.

test system: BT-549 breast; assay: NCI-60 cell line screen, 48 h

Q: For O=C1c2cccc3cc([N+](=O)[O-])cc(c23)C(=O)N1CCCN1CCN(CCCNc2ccc3ncn4c5ccccc5c(=O)c2c34)CC1, which TGI is on record?
A: The TGI was 0.0361 µM.

Q: How did the TGI turn out when COC(=O)C(Cc1cn(C(C)=O)c2ccccc12)P(=O)(OC)OC (configuration not stated) was run?
A: The TGI was greater than 100 µM.

Q: Which TGI does the source give for O=C(O)c1ccc(P(=O)(O)c2ccc(C(=O)O)cc2Br)c(Br)c1 here?
A: The TGI was greater than 100 µM.

Q: Cn1ccnc1CC(C)(O)c1ccccc1 (configuration not stated) was tested. Which TGI did it give?
A: Its TGI is greater than 100 µM.

test system: CAKI-1 renal; assay: NCI-60 cell line screen, 48 h

Q: With O=C1c2cccc3cc([N+](=O)[O-])cc(c23)C(=O)N1CCCN1CCN(CCCNc2ccc3ncn4c5ccccc5c(=O)c2c34)CC1 as the molecule, how does the TGI read?
A: The TGI was 0.00674 µM.

Q: Which TGI does the source give for COC(=O)C(Cc1cn(C(C)=O)c2ccccc12)P(=O)(OC)OC (configuration not stated) here?
A: Its TGI is greater than 100 µM.

Q: How did the TGI turn out when O=C(O)c1ccc(P(=O)(O)c2ccc(C(=O)O)cc2Br)c(Br)c1 was run?
A: The TGI was greater than 100 µM.

Q: With Cn1ccnc1CC(C)(O)c1ccccc1 (configuration not stated) as the molecule, how does the TGI read?
A: Its TGI is greater than 100 µM.

test system: CCRF-CEM leukemia; assay: NCI-60 cell line screen, 48 h

Q: With O=C1c2cccc3cc([N+](=O)[O-])cc(c23)C(=O)N1CCCN1CCN(CCCNc2ccc3ncn4c5ccccc5c(=O)c2c34)CC1 as the molecule, how does the TGI read?
A: Its TGI is 5 µM.

Q: For COC(=O)C(Cc1cn(C(C)=O)c2ccccc12)P(=O)(OC)OC (configuration not stated), which TGI is on record?
A: Its TGI is greater than 100 µM.

test system: COLO 205 colon; assay: NCI-60 cell line screen, 48 h

Q: Which TGI does the source give for COC(=O)C(Cc1cn(C(C)=O)c2ccccc12)P(=O)(OC)OC (configuration not stated) here?
A: Its TGI is greater than 100 µM.

Q: With O=C(O)c1ccc(P(=O)(O)c2ccc(C(=O)O)cc2Br)c(Br)c1 as the molecule, how does the TGI read?
A: Its TGI is greater than 100 µM.

Q: With Cn1ccnc1CC(C)(O)c1ccccc1 (configuration not stated) as the molecule, how does the TGI read?
A: Its TGI is greater than 100 µM.

test system: DU-145 prostate; assay: NCI-60 cell line screen, 48 h

Q: O=C1c2cccc3cc([N+](=O)[O-])cc(c23)C(=O)N1CCCN1CCN(CCCNc2ccc3ncn4c5ccccc5c(=O)c2c34)CC1 was tested. Which TGI did it give?
A: The TGI was greater than 19.9 µM.

Q: With COC(=O)C(Cc1cn(C(C)=O)c2ccccc12)P(=O)(OC)OC (configuration not stated) as the molecule, how does the TGI read?
A: The TGI was greater than 100 µM.

Q: For O=C(O)c1ccc(P(=O)(O)c2ccc(C(=O)O)cc2Br)c(Br)c1, which TGI is on record?
A: The TGI was greater than 100 µM.

Q: With Cn1ccnc1CC(C)(O)c1ccccc1 (configuration not stated) as the molecule, how does the TGI read?
A: Its TGI is greater than 100 µM.

test system: EKVX NSCLC; assay: NCI-60 cell line screen, 48 h

Q: With O=C1c2cccc3cc([N+](=O)[O-])cc(c23)C(=O)N1CCCN1CCN(CCCNc2ccc3ncn4c5ccccc5c(=O)c2c34)CC1 as the molecule, how does the TGI read?
A: The TGI was greater than 50 µM.

Q: O=C(O)c1ccc(P(=O)(O)c2ccc(C(=O)O)cc2Br)c(Br)c1 was tested. Which TGI did it give?
A: Its TGI is greater than 100 µM.

Q: Cn1ccnc1CC(C)(O)c1ccccc1 (configuration not stated) was tested. Which TGI did it give?
A: Its TGI is greater than 100 µM.

test system: HCC-2998 colon; assay: NCI-60 cell line screen, 48 h

Q: With COC(=O)C(Cc1cn(C(C)=O)c2ccccc12)P(=O)(OC)OC (configuration not stated) as the molecule, how does the TGI read?
A: Its TGI is greater than 100 µM.

Q: O=C(O)c1ccc(P(=O)(O)c2ccc(C(=O)O)cc2Br)c(Br)c1 was tested. Which TGI did it give?
A: Its TGI is greater than 100 µM.

Q: With Cn1ccnc1CC(C)(O)c1ccccc1 (configuration not stated) as the molecule, how does the TGI read?
A: The TGI was greater than 100 µM.

test system: HCT-116 colon; assay: NCI-60 cell line screen, 48 h

Q: Which TGI does the source give for COC(=O)C(Cc1cn(C(C)=O)c2ccccc12)P(=O)(OC)OC (configuration not stated) here?
A: Its TGI is greater than 100 µM.

Q: How did the TGI turn out when O=C(O)c1ccc(P(=O)(O)c2ccc(C(=O)O)cc2Br)c(Br)c1 was run?
A: Its TGI is greater than 100 µM.

Q: With Cn1ccnc1CC(C)(O)c1ccccc1 (configuration not stated) as the molecule, how does the TGI read?
A: Its TGI is greater than 100 µM.

test system: HCT-15 colon; assay: NCI-60 cell line screen, 48 h

Q: O=C1c2cccc3cc([N+](=O)[O-])cc(c23)C(=O)N1CCCN1CCN(CCCNc2ccc3ncn4c5ccccc5c(=O)c2c34)CC1 was tested. Which TGI did it give?
A: The TGI was greater than 50 µM.

Q: Which TGI does the source give for COC(=O)C(Cc1cn(C(C)=O)c2ccccc12)P(=O)(OC)OC (configuration not stated) here?
A: Its TGI is greater than 100 µM.

Q: How did the TGI turn out when O=C(O)c1ccc(P(=O)(O)c2ccc(C(=O)O)cc2Br)c(Br)c1 was run?
A: Its TGI is greater than 100 µM.

Q: With Cn1ccnc1CC(C)(O)c1ccccc1 (configuration not stated) as the molecule, how does the TGI read?
A: Its TGI is greater than 100 µM.

test system: HL-60(TB) leukemia; assay: NCI-60 cell line screen, 48 h

Q: How did the TGI turn out when COC(=O)C(Cc1cn(C(C)=O)c2ccccc12)P(=O)(OC)OC (configuration not stated) was run?
A: Its TGI is greater than 100 µM.

Q: With O=C(O)c1ccc(P(=O)(O)c2ccc(C(=O)O)cc2Br)c(Br)c1 as the molecule, how does the TGI read?
A: The TGI was greater than 100 µM.

test system: HOP-62 NSCLC; assay: NCI-60 cell line screen, 48 h

Q: With O=C1c2cccc3cc([N+](=O)[O-])cc(c23)C(=O)N1CCCN1CCN(CCCNc2ccc3ncn4c5ccccc5c(=O)c2c34)CC1 as the molecule, how does the TGI read?
A: The TGI was 1.74 µM.

Q: With O=C(O)c1ccc(P(=O)(O)c2ccc(C(=O)O)cc2Br)c(Br)c1 as the molecule, how does the TGI read?
A: The TGI was greater than 100 µM.

Q: Which TGI does the source give for Cn1ccnc1CC(C)(O)c1ccccc1 (configuration not stated) here?
A: Its TGI is greater than 100 µM.

test system: HOP-92 NSCLC; assay: NCI-60 cell line screen, 48 h

Q: Which TGI does the source give for O=C1c2cccc3cc([N+](=O)[O-])cc(c23)C(=O)N1CCCN1CCN(CCCNc2ccc3ncn4c5ccccc5c(=O)c2c34)CC1 here?
A: The TGI was greater than 50 µM.
